Data from ChEMBL document CHEMBL1649202, “Temporal trends of antimicrobial resistance and clonality of invasive Streptococcus pneumoniae isolates in Finland, 2002 to 2006” (2009).
Converted amounts (≈) assume the structure as drawn.

Legend:
Format in all cases: functional
Streptococcus pneumoniae [1] = assay: Antimicrobial activity against Streptococcus pneumoniae serotype 19F ST 671 by agar plate dilution method
Streptococcus pneumoniae [2] = assay: Antimicrobial activity against Streptococcus pneumoniae serotype 19F ST 156 by agar plate dilution method
Streptococcus pneumoniae [3] = assay: Antimicrobial activity against Streptococcus pneumoniae serotype 19F ST 3245 by agar plate dilution method
Streptococcus pneumoniae [4] = assay: Antimicrobial activity against Streptococcus pneumoniae serotype 18C ST 496 harboring ERY-resistant erm(B) gene by agar plate dilution method
Streptococcus pneumoniae [5] = assay: Antimicrobial activity against Streptococcus pneumoniae serotype 4 ST 205 by agar plate dilution method
Streptococcus pneumoniae [6] = assay: Antimicrobial activity against Streptococcus pneumoniae serotype 14 ST 3247 by agar plate dilution method
Streptococcus pneumoniae [7] = assay: Antimicrobial activity against Streptococcus pneumoniae serotype 14 ST 2918 by agar plate dilution method
Streptococcus pneumoniae [8] = assay: Antimicrobial activity against Streptococcus pneumoniae serotype 14 ST 2306 harboring ERY-resistant erm(B) gene by agar plate dilution method
Streptococcus pneumoniae [9] = assay: Antimicrobial activity against Streptococcus pneumoniae serotype 6B ST 138 by agar plate dilution method
Streptococcus pneumoniae [10] = assay: Antimicrobial activity against Streptococcus pneumoniae serotype 19F ST 2917 harboring ERY-resistant erm(B) and mef(E) gene by agar plate dilution method
Streptococcus pneumoniae [11] = assay: Antimicrobial activity against Streptococcus pneumoniae serotype 6B ST 3249 by agar plate dilution method
Streptococcus pneumoniae [12] = assay: Antimicrobial activity against Streptococcus pneumoniae serotype 23F ST 961 harboring ERY-resistant erm(B) gene by agar plate dilution method
Streptococcus pneumoniae [13] = assay: Antimicrobial activity against Streptococcus pneumoniae serotype 14 ST 2678 harboring ERY-resistant erm(B) gene by agar plate dilution method
Streptococcus pneumoniae [14] = assay: Antimicrobial activity against Streptococcus pneumoniae serotype 14 ST 143 harboring ERY-resistant erm(B) gene by agar plate dilution method
Streptococcus pneumoniae [15] = assay: Antimicrobial activity against Streptococcus pneumoniae serotype 23F ST 81 harboring ERY-resistant mef(E) gene by agar plate dilution method
Streptococcus pneumoniae [16] = assay: Antimicrobial activity against Streptococcus pneumoniae serotype 19F ST 2694 harboring ERY-resistant mef(E) gene by agar plate dilution method
Streptococcus pneumoniae [17] = assay: Antimicrobial activity against Streptococcus pneumoniae serotype 19F ST 271 harboring ERY-resistant erm(B) and mef(E) gene by agar plate dilution method
Streptococcus pneumoniae [18] = assay: Antimicrobial activity against Streptococcus pneumoniae serotype 19F ST 236 by agar plate dilution method
Streptococcus pneumoniae [19] = assay: Antimicrobial activity against Streptococcus pneumoniae serotype 6B ST 3246 harboring ERY-resistant erm(B) gene by agar plate dilution method
Streptococcus pneumoniae [20] = assay: Antimicrobial activity against Streptococcus pneumoniae serotype 6B ST 90 harboring ERY-resistant erm(B) gene by agar plate dilution method
Streptococcus pneumoniae [21] = assay: Antimicrobial activity against Streptococcus pneumoniae serotype 23F ST 3250 by agar plate dilution method
Streptococcus pneumoniae [22] = assay: Antimicrobial activity against Streptococcus pneumoniae serotype 17 ST 3248 by agar plate dilution method
Streptococcus pneumoniae [23] = assay: Antimicrobial activity against Streptococcus pneumoniae serotype 10 ST 461 by agar plate dilution method
Streptococcus pneumoniae [24] = assay: Antimicrobial activity against Streptococcus pneumoniae serotype 14 ST 2916 harboring ERY-resistant erm(B) gene by agar plate dilution method
Streptococcus pneumoniae [25] = assay: Antimicrobial activity against Streptococcus pneumoniae serotype 14 ST 156 harboring ERY-resistant mef(E) gene by agar plate dilution method
Streptococcus pneumoniae [26] = assay: Antimicrobial activity against Streptococcus pneumoniae serotype 9V ST 156 harboring ERY-resistant erm(B) or mef(E) gene by agar plate dilution method
Streptococcus pneumoniae [27] = assay: Antimicrobial activity against Streptococcus pneumoniae serotype 14 ST 13 harboring ERY-resistant mef(E) gene by agar plate dilution method

With `CC1(C)S[C@@H]2[C@H](NC(=O)Cc3ccccc3)C(=O)N2[C@H]1C(=O)O` [PENICILLIN G] the MIC (Streptococcus pneumoniae [1]) was 2 µg/mL (≈ 5.98 µM), the MIC (Streptococcus pneumoniae [2]) was 2 µg/mL (≈ 5.98 µM) and the MIC (Streptococcus pneumoniae [3]) was 4 µg/mL (≈ 12 µM). For the same compound, the MIC (Streptococcus pneumoniae [4]; read-out: MIC) was 2 µg/mL (≈ 5.98 µM), the MIC (Streptococcus pneumoniae [5]) was 2 µg/mL (≈ 5.98 µM) and the MIC (Streptococcus pneumoniae [6]) was 2 µg/mL (≈ 5.98 µM). The MIC (Streptococcus pneumoniae [7]) was 2 µg/mL (≈ 5.98 µM), the MIC (Streptococcus pneumoniae [8]) was 2 µg/mL (≈ 5.98 µM) and the MIC (Streptococcus pneumoniae [9]) was 4 µg/mL (≈ 12 µM). It also gave an MIC (Streptococcus pneumoniae [10]) of 2 µg/mL (≈ 5.98 µM), an MIC (Streptococcus pneumoniae [11]) of 2 µg/mL (≈ 5.98 µM) and an MIC (Streptococcus pneumoniae [12]) of 2 µg/mL (≈ 5.98 µM). The MIC (Streptococcus pneumoniae [13]) was 2 µg/mL (≈ 5.98 µM), the MIC (Streptococcus pneumoniae [14]) was 2 µg/mL (≈ 5.98 µM) and the MIC (Streptococcus pneumoniae [15]) was 2 µg/mL (≈ 5.98 µM). It also gave an MIC (Streptococcus pneumoniae [16]) of 2 µg/mL (≈ 5.98 µM), an MIC (Streptococcus pneumoniae [17]; read-out: MIC) of 2 µg/mL (≈ 5.98 µM) and an MIC (Streptococcus pneumoniae [18]) of 2 µg/mL (≈ 5.98 µM). It also gave an MIC (Streptococcus pneumoniae [19]) of 2 µg/mL (≈ 5.98 µM), an MIC (Streptococcus pneumoniae [20]) of 2 µg/mL (≈ 5.98 µM) and an MIC (Streptococcus pneumoniae [21]) of 2 µg/mL (≈ 5.98 µM). The MIC (Streptococcus pneumoniae [22]) was 2 µg/mL (≈ 5.98 µM), the MIC (Streptococcus pneumoniae [23]) was 2 µg/mL (≈ 5.98 µM) and the MIC (Streptococcus pneumoniae [24]) was 2 µg/mL (≈ 5.98 µM). For the same compound, the MIC (Streptococcus pneumoniae [25]) was 2 µg/mL (≈ 5.98 µM), the MIC (Streptococcus pneumoniae [26]) was 2 µg/mL (≈ 5.98 µM) and the MIC (Streptococcus pneumoniae [27]) was 2 µg/mL (≈ 5.98 µM).

`CC[C@H]1OC(=O)[C@H](C)[C@@H](O[C@H]2C[C@@](C)(OC)[C@@H](O)[C@H](C)O2)[C@H](C)[C@@H](O[C@@H]2O[C@H](C)C[C@H](N(C)C)[C@H]2O)[C@](C)(O)C[C@@H](C)C(=O)[C@H](C)[C@@H](O)[C@]1(C)O` [ERYTHROMYCIN] showed an MIC (Streptococcus pneumoniae [1]) of 32 µg/mL (≈ 43.6 µM), an MIC (Streptococcus pneumoniae [2]) of 0.125 µg/mL (≈ 0.17 µM) and an MIC (Streptococcus pneumoniae [3]) of over 128 µg/mL. The MIC (Streptococcus pneumoniae [4]) was over 128 µg/mL, the MIC (Streptococcus pneumoniae [5]) was 32 µg/mL (≈ 43.6 µM) and the MIC (Streptococcus pneumoniae [6]) was over 128 µg/mL. For the same compound, the MIC (Streptococcus pneumoniae [7]) was over 128 µg/mL, the MIC (Streptococcus pneumoniae [9]) was 16 µg/mL (≈ 21.8 µM) and the MIC (Streptococcus pneumoniae [11]) was over 128 µg/mL. For the same compound, the MIC (Streptococcus pneumoniae [15]) was 0.125 µg/mL (≈ 0.17 µM), the MIC (Streptococcus pneumoniae [16]) was 8 µg/mL (≈ 10.9 µM) and the MIC (Streptococcus pneumoniae [17]) was over 128 µg/mL. The MIC (Streptococcus pneumoniae [18]) was 8 µg/mL (≈ 10.9 µM), the MIC (Streptococcus pneumoniae [21]) was over 128 µg/mL and the MIC (Streptococcus pneumoniae [22]) was over 128 µg/mL. It also gave an MIC (Streptococcus pneumoniae [23]) of over 128 µg/mL, an MIC (Streptococcus pneumoniae [25]) of 0.125 µg/mL (≈ 0.17 µM) and an MIC (Streptococcus pneumoniae [26]) of over 0.063 µg/mL. For the same compound, the MIC (Streptococcus pneumoniae [27]) was 16 µg/mL (≈ 21.8 µM).

With `CN(C)[C@@H]1C(O)=C(C(N)=O)C(=O)[C@@]2(O)C(O)=C3C(=O)c4c(O)cccc4[C@@](C)(O)[C@H]3C[C@@H]12` [TETRACYCLINE] the MIC (Streptococcus pneumoniae [1]) was 0.5 µg/mL (≈ 1.13 µM), the MIC (Streptococcus pneumoniae [2]) was 0.25 µg/mL (≈ 0.563 µM) and the MIC (Streptococcus pneumoniae [4]; read-out: MIC) was 0.25 µg/mL (≈ 0.563 µM). It also gave an MIC (Streptococcus pneumoniae [5]) of 1 µg/mL (≈ 2.25 µM), an MIC (Streptococcus pneumoniae [7]) of 0.5 µg/mL (≈ 1.13 µM) and an MIC (Streptococcus pneumoniae [9]) of 0.25 µg/mL (≈ 0.563 µM). For the same compound, the MIC (Streptococcus pneumoniae [12]) was 0.25 µg/mL (≈ 0.563 µM), the MIC (Streptococcus pneumoniae [14]) was 0.25 µg/mL (≈ 0.563 µM) and the MIC (Streptococcus pneumoniae [15]) was 1 µg/mL (≈ 2.25 µM). It also gave an MIC (Streptococcus pneumoniae [17]; read-out: MIC) of 16 µg/mL (≈ 36 µM), an MIC (Streptococcus pneumoniae [20]) of 0.5 µg/mL (≈ 1.13 µM) and an MIC (Streptococcus pneumoniae [21]) of 16 µg/mL (≈ 36 µM). The MIC (Streptococcus pneumoniae [25]) was 0.25 µg/mL (≈ 0.563 µM), the MIC (Streptococcus pneumoniae [26]) was 0.25 µg/mL (≈ 0.563 µM) and the MIC (Streptococcus pneumoniae [27]) was 0.25 µg/mL (≈ 0.563 µM).
